Molecules are shown by their SMILES.

This experiment relates to MV-4-11 cells. In words: Gene expression microarray analysis (Affymetrix PrimeView) and GSEA. Further details: RFU PODN (11730768_x_at) / Fold change /veh PODN (11730768_x_at) / RFU LINC00158 (11744669_a_at) / Fold change /veh LINC00158 (11744669_a_at) / RFU DUSP10 (11751237_a_at) / Fold change /veh DUSP10 (11751237_a_at) / RFU ID3 (11757404_x_at) / Fold change /veh ID3 (11757404_x_at) / RFU PLEKHG5 (11737974_s_at) / Fold change /veh PLEKHG5 (11737974_s_at) / RFU LRRC4B (11730491_at) / Fold change /veh LRRC4B (11730491_at) / RFU GIMAP4 (11747438_a_at) / Fold change /veh GIMAP4 (11747438_a_at) / RFU KRT8 (11758183_x_at) / Fold change /veh KRT8 (11758183_x_at) / RFU CNN1 (11734310_a_at) / Fold change /veh CNN1 (11734310_a_at) / RFU VPS37D (11726825_at) / Fold change /veh VPS37D (11726825_at) / RFU C10orf10 (11716522_x_at) / Fold change /veh C10orf10 (11716522_x_at) / RFU KIR2DL2 /// KIR2DL4 /// KIR2DL5A /// KIR2DL5B /// KIR2DS1 /// KIR2DS2 /// KIR2DS3 /// KIR2DS4 /// KIR3DL3 /// KIR3DL3 /// KIR3DS1 (11738374_at) / Fold change /veh KIR2DL2 /// KIR2DL4 /// KIR2DL5A /// KIR2DL5B /// KIR2DS1 /// KIR2DS2 /// KIR2DS3 /// KIR2DS4 /// KIR3DL3 /// KIR3DL3 /// KIR3DS1 (11738374_at) / RFU C1QL1 (11718748_at) / Fold change /veh C1QL1 (11718748_at) / RFU TMPRSS4 (11747572_a_at) / Fold change /veh TMPRSS4 (11747572_a_at) / RFU HAMP (11756126_x_at) / Fold change /veh HAMP (11756126_x_at) / RFU RNFT2 (11725882_a_at) / Fold change /veh RNFT2 (11725882_a_at) / RFU NR4A2 (11747474_a_at) / Fold change /veh NR4A2 (11747474_a_at) / RFU ABCC12 (11746883_a_at) / Fold change /veh ABCC12 (11746883_a_at) / RFU TMEM136 (11760407_x_at) / Fold change /veh TMEM136 (11760407_x_at) / RFU CLDN22 /// WWC2 (11732394_at) / Fold change /veh CLDN22 /// WWC2 (11732394_at) / RFU HLA-DPB1 (11760878_x_at) / Fold change /veh HLA-DPB1 (11760878_x_at) / RFU SPINT1 (11716480_a_at) / Fold change /veh SPINT1 (11716480_a_at) / RFU GAP43 (11754022_s_at) / Fold change /veh GAP43 (11754022_s_at) / RFU A4GNT (11735810_at) / Fold change /veh A4GNT (11735810_at) / RFU PRB3 (11715151_x_at) / Fold change /veh PRB3 (11715151_x_at) / RFU TUBB4B (11761932_at) / Fold change /veh TUBB4B (11761932_at) / RFU CAPN14 (11732068_a_at) / Fold change /veh CAPN14 (11732068_a_at) / RFU TMCC2 (11721928_a_at) / Fold change /veh TMCC2 (11721928_a_at) / RFU IRGQ (11745062_a_at) / Fold change /veh IRGQ (11745062_a_at) / RFU FAM174B (11720279_a_at) / Fold change /veh FAM174B (11720279_a_at) / RFU TMPRSS4 (11748680_a_at) / Fold change /veh TMPRSS4 (11748680_a_at) / RFU FAM212B (11763350_a_at) / Fold change /veh FAM212B (11763350_a_at) / RFU PLEKHG5 (11743358_a_at) / Fold change /veh PLEKHG5 (11743358_a_at) / RFU ZSCAN30 (11745921_a_at) / Fold change /veh ZSCAN30 (11745921_a_at) / RFU CMKLR1 (11741424_a_at) / Fold change /veh CMKLR1 (11741424_a_at) / RFU LOC101060620 /// MAPK8IP1 (11723275_at) / Fold change /veh LOC101060620 /// MAPK8IP1 (11723275_at) / RFU SPTSSB (11747773_x_at) / Fold change /veh SPTSSB (11747773_x_at) / RFU PRSS12 (11739890_at) / Fold change /veh PRSS12 (11739890_at) / RFU BIN1 (11741810_x_at) / Fold change /veh BIN1 (11741810_x_at) / RFU WNT11 (11732464_a_at) / Fold change /veh WNT11 (11732464_a_at) / RFU C10orf10 (11716521_a_at) / Fold change /veh C10orf10 (11716521_a_at) / RFU C5orf56 (11738089_at) / Fold change /veh C5orf56 (11738089_at) / RFU CYB561 (11721691_x_at) / Fold change /veh CYB561 (11721691_x_at) / RFU ANKRD19P (11752326_a_at) / Fold change /veh ANKRD19P (11752326_a_at) / RFU OR2T12 /// OR2T33 /// OR2T8 (11738714_s_at) / Fold change /veh OR2T12 /// OR2T33 /// OR2T8 (11738714_s_at) / RFU VCAN (11748164_a_at) / Fold change /veh VCAN (11748164_a_at) / RFU JSRP1 (11732532_at) / Fold change /veh JSRP1 (11732532_at) / RFU KRTAP10-11 (11738290_x_at) / Fold change /veh KRTAP10-11 (11738290_x_at) / RFU MYO3A (11730013_a_at) / Fold change /veh MYO3A (11730013_a_at) / RFU EBF3 (11725865_a_at) / Fold change /veh EBF3 (11725865_a_at) / RFU CAMK2N1 (11719241_x_at) / Fold change /veh CAMK2N1 (11719241_x_at) / RFU C5orf56 (11738088_a_at) / Fold change /veh C5orf56 (11738088_a_at) / RFU OLFML3 (11715873_a_at) / Fold change /veh OLFML3 (11715873_a_at) / RFU LOC100653217 /// NTM (11731650_a_at) / Fold change /veh LOC100653217 /// NTM (11731650_a_at) / RFU MAPK11 (11762145_a_at) / Fold change /veh MAPK11 (11762145_a_at) / RFU FIZ1 (11724087_x_at) / Fold change /veh FIZ1 (11724087_x_at) / RFU OASL (11726364_x_at) / Fold change /veh OASL (11726364_x_at) / RFU SOX15 (11748057_x_at) / Fold change /veh SOX15 (11748057_x_at) / RFU CD79A (11719716_a_at) / Fold change /veh CD79A (11719716_a_at) / RFU HIST1H1D (11736915_at) / Fold change /veh HIST1H1D (11736915_at) / RFU CASKIN2 (11723855_a_at) / Fold change /veh CASKIN2 (11723855_a_at) / RFU LOC730098 (11760151_x_at) / Fold change /veh LOC730098 (11760151_x_at) / RFU OR4N2 (11742367_at) / Fold change /veh OR4N2 (11742367_at) / RFU PRRT2 (11749266_a_at) / Fold change /veh PRRT2 (11749266_a_at) / RFU SNX32 (11753110_a_at) / Fold change /veh SNX32 (11753110_a_at) / RFU CDHR5 (11726645_a_at) / Fold change /veh CDHR5 (11726645_a_at) / RFU RCAN1 (11760418_a_at) / Fold change /veh RCAN1 (11760418_a_at) / RFU FAM167A (11723789_a_at) / Fold change /veh FAM167A (11723789_a_at) / RFU FAM26E (11764081_at) / Fold change /veh FAM26E (11764081_at) / RFU ISYNA1 (11749810_s_at) / Fold change /veh ISYNA1 (11749810_s_at) / RFU ACY1 (11761880_at) / Fold change /veh ACY1 (11761880_at) / RFU 11764098_at / Fold change /veh 11764098_at / RFU SAMD14 (11745864_x_at) / Fold change /veh SAMD14 (11745864_x_at) / RFU NPB (11741838_a_at) / Fold change /veh NPB (11741838_a_at) / RFU TMPRSS6 (11731388_a_at) / Fold change /veh TMPRSS6 (11731388_a_at) / RFU KRTAP10-2 (11738614_at) / Fold change /veh KRTAP10-2 (11738614_at) / RFU ARHGAP8 /// PRR5-ARHGAP8 (11727945_x_at) / Fold change /veh ARHGAP8 /// PRR5-ARHGAP8 (11727945_x_at) / RFU KRTAP5-7 /// NADSYN1 (11734609_at) / Fold change /veh KRTAP5-7 /// NADSYN1 (11734609_at) / RFU RASL12 (11751679_a_at) / Fold change /veh RASL12 (11751679_a_at) / RFU CDKN2B (11736163_a_at) / Fold change /veh CDKN2B (11736163_a_at) / RFU PRF1 (11729649_at) / Fold change /veh PRF1 (11729649_at) / RFU, ZNF638 /// ZNF638-IT1 / Fold change vs veh, ZNF638 /// ZNF638-IT1 / RFU, PANK3 / Fold change vs veh, PANK3 / RFU, SH3YL1 / Fold change vs veh, SH3YL1 / RFU, ZEB2 / Fold change vs veh, ZEB2 / RFU, NRIP1 / Fold change vs veh, NRIP1 / RFU, PTTG1IP / Fold change vs veh, PTTG1IP / RFU, CAPN2 / Fold change vs veh, CAPN2 / RFU, MED14 / Fold change vs veh, MED14 / RFU, SNORA58 / Fold change vs veh, SNORA58 / RFU, C1orf63 / Fold change vs veh, C1orf63 / RFU, LRRFIP1 / Fold change vs veh, LRRFIP1 / RFU, NDUFAF7 / Fold change vs veh, NDUFAF7 / RFU, SLC12A2 / Fold change vs veh, SLC12A2 / RFU, IBTK / Fold change vs veh, IBTK / RFU, ESF1 / Fold change vs veh, ESF1 / Fold change vs veh, TMEM50B / RFU, TAOK1 / Fold change vs veh, TAOK1 / RFU, ACBD3 / Fold change vs veh, ACBD3 / RFU, TMA16 / Fold change vs veh, TMA16 / RFU, RWDD3 / Fold change vs veh, RWDD3 / RFU, BCAT1 / Fold change vs veh, BCAT1 / RFU, EDEM3 / Fold change vs veh, EDEM3 / RFU, TMEM33 / Fold change vs veh, TMEM33 / RFU, WDR75 / Fold change vs veh, WDR75 / RFU, AHCTF1 / Fold change vs veh, AHCTF1 / RFU, TFRC / Fold change vs veh, TFRC / RFU, ZDHHC17 / Fold change vs veh, ZDHHC17 / RFU, NOM1 / Fold change vs veh, NOM1 / RFU, ARL8B / Fold change vs veh, ARL8B / RFU, ZBTB11 / Fold change vs veh, ZBTB11 / RFU, TAMM41 / Fold change vs veh, TAMM41 / RFU, KIAA1704 /// LOC100996395 / Fold change vs veh, KIAA1704 /// LOC100996395 / RFU, ING1 / Fold change vs veh, ING1 / RFU, TRMT61B / Fold change vs veh, TRMT61B / RFU, FUBP3 / Fold change vs veh, FUBP3 / RFU, TP53 / Fold change vs veh, TP53 / RFU, TNKS2 / Fold change vs veh, TNKS2 / RFU, ZFP14 / Fold change vs veh, ZFP14 / RFU, ACTR2 / Fold change vs veh, ACTR2 / RFU, PPP3R1 / Fold change vs veh, PPP3R1 / RFU, PIK3R1 / Fold change vs veh, PIK3R1 / RFU, HNRNPA1 / Fold change vs veh, HNRNPA1 / RFU, RNF170 / Fold change vs veh, RNF170 / RFU, ZNF28 / Fold change vs veh, ZNF28 / RFU, RNGTT / Fold change vs veh, RNGTT / RFU, OGT / Fold change vs veh, OGT / RFU, BRD1 / Fold change vs veh, BRD1 / RFU, MARS / Fold change vs veh, MARS / RFU, ZNF655 / Fold change vs veh, ZNF655 / RFU, FAHD1 / Fold change vs veh, FAHD1 / RFU, BDP1 / Fold change vs veh, BDP1 / RFU, LRRCC1 / Fold change vs veh, LRRCC1 / RFU, ARID1A / Fold change vs veh, ARID1A / RFU, ZNF146 / Fold change vs veh, ZNF146 / RFU, ZNF330 / Fold change vs veh, ZNF330 / RFU, GPN3 / Fold change vs veh, GPN3 / RFU, C9orf123 / Fold change vs veh, C9orf123 / RFU, N4BP2L2 / Fold change vs veh, N4BP2L2 / RFU, ARFIP1 / Fold change vs veh, ARFIP1 / RFU, FAM179B / Fold change vs veh, FAM179B / RFU, BCL10 / Fold change vs veh, BCL10 / RFU, UHRF1BP1L / Fold change vs veh, UHRF1BP1L / RFU, BET1 / Fold change vs veh, BET1 / RFU, CNOT2 / Fold change vs veh, CNOT2 / RFU, ZNF268 / Fold change vs veh, ZNF268 / Fold change vs veh, ZNF507 / RFU, DGCR2 / Fold change vs veh, DGCR2 / RFU, WDSUB1 / Fold change vs veh, WDSUB1 / Fold change vs veh, HSP90B1 /// MIR3652 / RFU, ADSS / Fold change vs veh, ADSS / RFU, GK / Fold change vs veh, GK / RFU, ZNF148 / Fold change vs veh, ZNF148 / RFU, TAF9 / Fold change vs veh, TAF9 / RFU, SLC1A5 / Fold change vs veh, SLC1A5 / RFU, SLMO2 / Fold change vs veh, SLMO2 / RFU, ABCC4 / Fold change vs veh, ABCC4 / RFU, LOC101060439 /// RAP1B / Fold change vs veh, LOC101060439 /// RAP1B / RFU, RFX7 / Fold change vs veh, RFX7 / RFU, GTPBP10 / Fold change vs veh, GTPBP10 / RFU, CNEP1R1 / Fold change vs veh, CNEP1R1 / RFU, BIVM-ERCC5 /// ERCC5 / Fold change vs veh, BIVM-ERCC5 /// ERCC5 / RFU, ILF3 / Fold change vs veh, ILF3 / RFU 11762660_at / Fold change /veh 11762660_at / RFU VCAN (11757783_s_at) / Fold change /veh VCAN (11757783_s_at) / RFU DDX43 (11728927_at) / Fold change /veh DDX43 (11728927_at) / RFU KRT8 (11758188_x_at) / Fold change /veh KRT8 (11758188_x_at) / RFU NKD1 (11759106_at) / Fold change /veh NKD1 (11759106_at) / RFU SRD5A1 (11742802_a_at) / Fold change /veh SRD5A1 (11742802_a_at) / RFU TPSAB1 /// TPSB2 (11721975_s_at) / Fold change /veh TPSAB1 /// TPSB2 (11721975_s_at) / RFU GSTM3 (11746129_a_at) / Fold change /veh GSTM3 (11746129_a_at) / RFU IL23R (11737362_x_at) / Fold change /veh IL23R (11737362_x_at) / RFU TMEM51 (11727254_a_at) / Fold change /veh TMEM51 (11727254_a_at) / RFU PIWIL2 (11732686_x_at) / Fold change /veh PIWIL2 (11732686_x_at) / RFU ORM1 (11744905_x_at) / Fold change /veh ORM1 (11744905_x_at) / RFU CCDC152 (11743942_at) / Fold change /veh CCDC152 (11743942_at) / RFU ECM1 (11717891_a_at) / Fold change /veh ECM1 (11717891_a_at) / RFU IL23R (11748794_a_at) / Fold change /veh IL23R (11748794_a_at) / RFU TNFAIP8L3 (11732012_x_at) / Fold change /veh TNFAIP8L3 (11732012_x_at) / RFU MBOAT4 (11741988_at) / Fold change /veh MBOAT4 (11741988_at) / RFU 11764193_at / Fold change /veh 11764193_at / RFU TMEM53 (11763286_at) / Fold change /veh TMEM53 (11763286_at) / RFU MAGEB2 (11727129_at) / Fold change /veh MAGEB2 (11727129_at) / RFU TMEM200A (11744735_a_at) / Fold change /veh TMEM200A (11744735_a_at) / RFU CCDC152 (11751479_a_at) / Fold change /veh CCDC152 (11751479_a_at) / RFU FAM211A (11726209_a_at) / Fold change /veh FAM211A (11726209_a_at) / RFU RGS16 (11746705_a_at) / Fold change /veh RGS16 (11746705_a_at) / RFU VCAN (11755009_s_at) / Fold change /veh VCAN (11755009_s_at) / RFU RHOB (11743442_s_at) / Fold change /veh RHOB (11743442_s_at) / RFU RGS16 (11720943_a_at) / Fold change /veh RGS16 (11720943_a_at) / RFU RGS16 (11720944_at) / Fold change /veh RGS16 (11720944_at) / RFU, VPS4B / Fold change vs veh, VPS4B / RFU, CREB1 / Fold change vs veh, CREB1 / RFU, DNAJC13 / Fold change vs veh, DNAJC13 / RFU, GNAQ / Fold change vs veh, GNAQ / RFU, CDK5R1 / Fold change vs veh, CDK5R1 / RFU, ZRANB3 / Fold change vs veh, ZRANB3 / RFU, CUL4A / Fold change vs veh, CUL4A / RFU, CCNY / Fold change vs veh, CCNY / RFU, UFL1 / Fold change vs veh, UFL1 / RFU, COG3 / Fold change vs veh, COG3 / RFU, DIAPH2 / Fold change vs veh, DIAPH2 / RFU, SKA2 / Fold change vs veh, SKA2 / RFU, AFF3 / Fold change vs veh, AFF3 / RFU, LMF1 / Fold change vs veh, LMF1 / RFU, IPO11 / Fold change vs veh, IPO11 / RFU, DFFB / Fold change vs veh, DFFB / RFU, FOXP1 / Fold change vs veh, FOXP1 / RFU, CARD8 / Fold change vs veh, CARD8 / RFU, STRN3 / Fold change vs veh, STRN3 / RFU, ADK / Fold change vs veh, ADK / RFU, RASSF2 / Fold change vs veh, RASSF2 / RFU, WIPF1 / Fold change vs veh, WIPF1 / RFU, LARP1B / Fold change vs veh, LARP1B / RFU, RASA1 / Fold change vs veh, RASA1 / RFU, RB1 / Fold change vs veh, RB1 / RFU, PPFIA1 / Fold change vs veh, PPFIA1 / RFU, MAT2A / Fold change vs veh, MAT2A / RFU, CCT5 / Fold change vs veh, CCT5 / RFU, WDR92 / Fold change vs veh, WDR92 / RFU, CUX1 / Fold change vs veh, CUX1 / RFU, TTC7A / Fold change vs veh, TTC7A / RFU, TMEM135 / Fold change vs veh, TMEM135 / RFU, DEPTOR / Fold change vs veh, DEPTOR / RFU, CPM / Fold change vs veh, CPM / RFU, DNAJB6 / Fold change vs veh, DNAJB6 / RFU, CACNA2D3 / Fold change vs veh, CACNA2D3 / RFU, DTX4 / Fold change vs veh, DTX4 / RFU, TFCP2 / Fold change vs veh, TFCP2 / RFU, GMCL1 /// GMCL1P1 / Fold change vs veh, GMCL1 /// GMCL1P1 / RFU, AEBP2 / Fold change vs veh, AEBP2 / RFU, SNHG1 /// SNORD22 /// SNORD25 /// SNORD26 /// SNORD27 /// SNORD28 /// SNORD29 /// SNORD31 / Fold change vs veh, SNHG1 /// SNORD22 /// SNORD25 /// SNORD26 /// SNORD27 /// SNORD28 /// SNORD29 /// SNORD31 / Fold change (Aza/veh), C12orf56 (ProbeSet 11735607_a_at) / Fold change (ACY-1035/veh), C12orf56 (ProbeSet 11735607_a_at) / Fold change (Aza/veh), FGFR1OP (ProbeSet 11751329_s_at) / Fold change (ACY-1035/veh), FGFR1OP (ProbeSet 11751329_s_at) / Fold change (Aza/veh), VPS36 (ProbeSet 11739960_a_at) / Fold change (ACY-1035/veh), VPS36 (ProbeSet 11739960_a_at) / RFU SYPL1 (11715823_x_at) / Fold change /veh SYPL1 (11715823_x_at) / RFU IGFBP7 (11715501_s_at) / Fold change /veh IGFBP7 (11715501_s_at) / RFU REEP3 (11722064_at) / Fold change /veh REEP3 (11722064_at) / RFU IGLL1 (11728026_x_at) / Fold change /veh IGLL1 (11728026_x_at): dose or concentration left out as unconfirmed. The following applies: MV-4-11 cells, 48 hours. It is filed as cell-based, human.

As to `Nc1ccc(-c2cccs2)cc1NC(=O)c1ccc2c(c1)cc(C1CC1)n2CCN1CCOCC1` [ACY-1035], the “RFU KRT8 (11758183_x_at)” value is on record as 18.67 RFU.

These data come from publication PMC5218480 (PLoS ONE, 2017).
